{
  "source": "patent US20080003254A1",
  "about": "“SYSTEMS AND METHODS FOR DELIVERING A RAPAMYCIN ANALOG THAT DO NOT INHIBIT HUMAN CORONARY ARTERY ENDOTHELIAL CELL MIGRATION” (ABBOTT LABORATORIES, priority 2006, published 2008)",
  "key": {"[1]": {"system": "human coronary artery endothelial cells (hCaEC)", "assay": "hCaEC migration in modified Boyden chambers", "format": "cell-based", "conditions": "for effect on full growth media induced hCaEC migration: 24 hours drug pretreatment in hCaEC full growth media, drug present during migration, FIG. 2; for effect on FBS-induced hCaEC migration: 24 hours drug pretreatment in growth media, migration in response to 5% FBS without additional growth factors, FIG. 3; for effect on hCaEC migration: FIG. 1A", "experimental": "(§1) The cancer chemotherapeutic, paclitaxel is hypothesized to directly interfere with microtubule homeostasis leading to the inhibition of EC migration and proliferation, which can lead to increased thrombosis. Reduced p70S6K activation alone will not result in anti-migratory activity. To examine the comparative effects of sirolimus, zotarolimus, dexamethasone, and paclitaxel on human coronary artery smooth muscle and endothelial cell migration, studies were conducted using modified Boyden chambers. As such, EC migration in response to HFGF, HEGF, VEGF, R^3-IGF-1 and FBS was determined using a modified Boyden chamber. Migration was induced using a variety of chemotactic stimuli including fetal bovine serum (FBS) in the presence and absence of growth factors as well as […] homodimer B (PDGF-BB). Anti-migratory activity was assessed after acute drug treatment and after pretreatment (24 hours) in basal or growth conditions.\n(§2) Primary human coronary artery smooth muscle (hCaSMC) and endothelial cells (hCaEC) obtained from Cambrex (Walkersville, Md.) were routinely maintained in media recommended by the manufacturer. The hCaSMC were grown in a smooth muscle growth medium (“minimal media”, SmnBM, Cambrex) supplemented with the appropriate SingleQuot® to yield the complete medium containing 5% FBS, 0.1% hEGF, 0.2% hFGF-B, and 0.1% insulin (hCaSMC growth media). The hCaEC were maintained in the corresponding complete medium consisting of an endothelial cell growth medium (“minimal media”, EBM-2, Cambrex) supplemented with the appropriate SingleQuot® to yield the complete medium containing 5% FBS, 0.1% HEGF-B, 0.4% FGF, 0.1% R3-IGF, 0.04% hydrocortisone, 0.1% VEGF, and 0.1% ascorbic acid (hCaEC growth media). Cells were routinely propagated in the appropriate medium in humidified incubators maintained at 37° C. in an atmosphere containing 5% CO2. When necessary, each cell type was passed at 75% confluence.\n(§3) Cells were maintained and used prior to 7 population doublings in all experiments. To expand cells prior to assay, frozen hCaSMC or hCaEC cells were thawed and cultured in T-162 flasks in smooth muscle growth medium (SmGM) or endothelial cell growth medium-2 (EGM-2), respectively, with the appropriate supplements. The cell medium was changed the next day and then every other day until cells reached 70-90% confluency. Growth medium was removed and cells were rinsed twice with PBS (without Ca^2+ and Mg^2+). To detach cells, sufficient trypsin/EDTA (3 ml) was added to cover the cell monolayer and the flask incubated at room temperature. After cells detached, trypsin was neutralized by addition of 6 ml complete medium. Cells were counted, transferred to a 50 ml tube and centrifuged. The cell pellet was re-suspended in growth medium to the appropriate cell density for experiments.\n(§4) Cells (hCaEC or hCaSMC) were synchronized for 24 hours in basal media prior to all migration experiments. In acute studies, cells were collected, counted, and 200,000 hCaEC or 160,000 hCaSMC placed in the upper chambers of modified boyden chambers in 24 well plates (BD Biosciences). Plates contained microporous Fluoroblok membranes of 3.0 and 8.0 um for hCaEC and hCaSMC, respectively (Beckton Dickensen Biosciences). Chambers used in hCaEC migration experiments were coated with fibronectin (BD BioCoat). In pretreatment experiments, cells were synchronized in the presence of drug or treated for 24 hours in growth media after synchronization but prior to cell counting and migration. All cells were resuspended in basal media containing drugs or solvent (control) prior to migration. Cells were allowed to migrate in response to chemotatic agents for 22-24 hours. After migration, cells were stained with calcein-AM for 90 minutes and fluorescence determined using a plate reader capable of measuring fluorescence emitted by the bottom of the microporous filter. […]"}, "[2]": {"system": "p70S6K (T389) phosphorylation", "assay": "Western blot of p70S6K (T389) phosphorylation in hCaSMC", "format": "cell-based, human", "conditions": "300 nM drug for 36 hours after 24 hours synchronization; FIG. 7", "experimental": "To determine if inhibition of p70S6K was involved in serum-induced migration Western blot experiments were performed on hCaEC and hCaSMC treated using an experimental paradigm similar to those of the migration experiments. Cells were synchronized for 24 hours in basal media followed by drug treatment in growth media for 36 hours. The effects of drug treatment on p70S6K T389 phosphorylation in hCaEC are illustrated in FIG. 6A-6B.\nThe hCaSMC were synchronized for 24 hours in basal media and incubated in growth media with or without drugs (300 nM) for 36 hours […]. Membranes were probed with a rabbit anti-phospho-p70S6K (T389) monoclonal antibody (Cell Signaling). […] Furthermore, the anti-migratory activity of the mTOR antagonists is not likely to contribute to their anti-restenotic activity. Conversely, paclitaxel is a potent anti-migratory agent and this effect is likely to contribute to it's anti-restenotic activity."}, "pRb phosphorylation": {"system": "pRb phosphorylation", "assay": "pRb phosphorylation (Western blot, hEC)", "format": "cell-based, human", "description": "Western blots have shown the levels of specific proteins using antibodies to those proteins in response to the rapamycin analog (e.g., zotarolimus). […] It has been shown that paclitaxel and zotarolimus inhibit the activation of p70S6K.\nAdditionally, it has been shown that paclitaxel, but not zotarolimus or dexamethasone, inhibits migration of human coronary artery endothelial cells in vitro. […] Paclitaxel blocks migration, however, all agents reduce p70S6K (T389) phosphorylation. […] Dexamethasone and zotarolimus are not predicted to inhibit re-endothelialization of vascular legions, and dexamethasone may promote re-endothelialization of vascular lesions. In contrast, paclitaxel inhibits re-endothelialization by blocking endothelial cell and/or smooth muscle cell migration."}, "[3]": {"system": "p70S6K (T389) phosphorylation", "assay": "Western blot of p70S6K (T389) phosphorylation in hCaEC", "format": "cell-based, human", "conditions": "for effect on p70S6K T389 phosphorylation in hCaEC: 300 nM drug in growth media for 36 hours after 24 hours synchronization, FIG. 6A", "experimental": "Human Coronary Endothelial Cells (hCaEC, Cambrex) were seeded on 100 mm plastic dishes (1-3×10^5 cells per dish) and incubated at 37° C. with 5% CO2 in complete growth media containing hFGF, HEGF, VEGF, R^3-IGF-1 and 5% FBS (GM). Cells were allowed to grow until dishes were 30-40% confluent. Cells were synchronized by incubation in basal media without supplements (BM) for 24 h. After synchronization the BM was replaced with GM containing test compounds, DMSO and BSA (Experimental dish: GM containing 300 nM test compounds, 0.1% BSA; Positive control: GM containing 0.1% BSA and 0.1% DMSO; Negative control: BM containing 0.1 or 0.5% FBS, 0.1% BSA and 0.1% DMSO).\nCells were incubated for 24 or 36 hours at 37° C. with 5% CO2. After which dishes were 50-70% confluent. Dishes were rinsed with warm PBS to remove excess FBS and than placed on ice. Whole cell lysates were prepared by adding 150-200 ul of RIPA lysis buffer at 4° C. (50 mM Tris HCl pH 8, 150 mM NaCl, 1% NP-40, 0.5% sodium deoxycholate, 0.1% SDS, 2 mM PMSF, 1 mM sodium orthovanadate, and protease inhibitor cocktail, Santa Cruz Biotechnology) to the culture dishes and collected by scrapping the plate surface with a cell scrapper. Lysates were transferred to 1 ml eppendorf tubes and incubated on ice with vortexing for 30 min. Samples were than centrifuged for 8 min at 10000 rpm. […]\nThe total protein concentration of the samples was determined by a modification of the method of Bradford (Quick Start Bradford Microplate Standard Assay, Bio-Rad) with bovine γ-globulin as a standard.\nTotal volume of the loaded sample was 45 ul containing 15 ul of 3× sample buffer (Laemmli Sample Buffer, Bio Rad), and sample (30 ul) containing 25 to 50 ug of protein. […] Denaturated samples were separated in 4-15% gradient or 12% Ready Tris-HCl gels (Bio-Rad) in running buffer 25 mM Tris, pH 8.3, 192 mM glycine, 0.1% SDS at 150-180 V for 60-90 minutes and transferred to Hybond-ECL membrane (Amersham Biosciences) in 25 mM Tris, pH 8.3, 192 mM glycine, 20% methanol at 100 V for 1 hour. […]"}, "[4]": {"system": "human coronary artery smooth muscle cells (hCaSMC)", "assay": "hCaSMC migration in modified Boyden chambers", "format": "cell-based", "conditions": "for effect on FBS-induced hCaSMC migration: 24 hours drug pretreatment in growth media, migration in response to FBS alone, FIG. 4; for effect on PDGF-BB stimulated hCaSMC migration: 24 hours pretreatment, PDGF-BB (25 ng/ml), FIG. 5", "experimental": "as §1, §2, §3, §4"}, "[5]": {"conditions": "acute drug exposure, no pretreatment, 5% FBS, 22 hour migration"}},
  "data": [
    {"smiles": "CO[C@H]1C[C@@H]2CC[C@@H](C)[C@@](O)(O2)C(=O)C(=O)N2CCCC[C@H]2C(=O)O[C@H]([C@H](C)C[C@@H]2CC[C@@H](OCCO)[C@H](OC)C2)CC(=O)[C@H](C)/C=C(\\C)[C@@H](O)[C@@H](OC)C(=O)[C@H](C)C[C@H](C)/C=C/C=C/C=C/1C", "note": "[everolimus]", "values": [
      {"measurement": "effect on full growth media induced hCaEC migration", "setting": "[1]", "result": "only paclitaxel inhibits"}
    ]},
    {"smiles": "CO[C@H]1C[C@@H]2CC[C@@H](C)[C@@](O)(O2)C(=O)C(=O)N2CCCC[C@H]2C(=O)O[C@H]([C@H](C)C[C@@H]2CC[C@H](n3cnnn3)[C@H](OC)C2)CC(=O)[C@H](C)/C=C(\\C)[C@@H](O)[C@@H](OC)C(=O)[C@H](C)C[C@H](C)/C=C/C=C/C=C/1C", "note": "[zotarolimus]", "values": [
      {"measurement": "effect on p70S6K T389 phosphorylation in hCaSMC", "setting": "[2]", "result": "completely inhibit"},
      {"measurement": "effect on pRb phosphorylation", "setting": "pRb phosphorylation", "result": "reduces pRb phosphorylation"},
      {"measurement": "effect on p70S6K T389 phosphorylation in hCaEC", "setting": "[3]", "result": "completely block"},
      {"measurement": "p70S6K T389 to actin ratio compared to growth controls (densitometry)", "setting": "[3]; hCaEC, 300 nM drug, FIG. 6B", "result": "significant inhibition"},
      {"measurement": "effect on FBS-induced hCaSMC migration", "setting": "[4]", "result": "did not significantly block"},
      {"measurement": "effect on PDGF-BB stimulated hCaSMC migration", "setting": "[4]", "result": "inhibited migration"},
      {"measurement": "effect on FBS-induced hCaEC migration", "setting": "[1]", "result": "did not significantly block"},
      {"measurement": "effect on full growth media induced hCaEC migration", "setting": "[1]", "result": "only paclitaxel inhibits"},
      {"measurement": "effect on hCaEC migration", "setting": "[1]; [5]", "result": "no effect"}
    ]},
    {"smiles": "CO[C@H]1C[C@@H]2CC[C@@H](C)[C@@](O)(O2)C(=O)C(=O)N2CCCC[C@H]2C(=O)O[C@H]([C@H](C)C[C@@H]2CC[C@@H](O)[C@H](OC)C2)CC(=O)[C@H](C)/C=C(\\C)[C@@H](O)[C@@H](OC)C(=O)[C@H](C)C[C@H](C)/C=C/C=C/C=C/1C", "note": "[sirolimus]", "values": [
      {"measurement": "effect on hCaEC migration", "setting": "[1]; [5]", "result": "no effect"}
    ]},
    {"smiles": "CC(=O)O[C@H]1C(=O)[C@@]2(C)[C@H]([C@H](OC(=O)c3ccccc3)[C@]3(O)C[C@H](OC(=O)[C@H](O)[C@@H](NC(=O)c4ccccc4)c4ccccc4)C(C)=C1C3(C)C)[C@]1(OC(C)=O)CO[C@@H]1C[C@@H]2O", "note": "[paclitaxel]", "values": [
      {"measurement": "effect on p70S6K T389 phosphorylation in hCaSMC", "setting": "[2]", "result": "reduces p70S6K"},
      {"measurement": "effect on p70S6K T389 phosphorylation in hCaEC", "setting": "[3]", "result": "reduces T389 phosphorylation"},
      {"measurement": "effect on FBS-induced hCaSMC migration", "setting": "[4]", "result": "significantly blocks"},
      {"measurement": "effect on PDGF-BB stimulated hCaSMC migration", "setting": "[4]", "result": "inhibited migration"},
      {"measurement": "IC50", "setting": "[4]; Homo sapiens, acute drug exposure, no pretreatment, 5% FBS, 22 hour migration, read-out: IC50 of inhibition of hCaSMC migration", "result": "0.0874 ± 0.018", "unit": "µM"},
      {"measurement": "Emax", "setting": "[4]; Homo sapiens, acute drug exposure, no pretreatment, 5% FBS, 22 hour migration, read-out: maximal efficacy of inhibition of hCaSMC migration", "result": "86.9 ± 2.9", "unit": "%"},
      {"measurement": "effect on FBS-induced hCaEC migration", "setting": "[1]", "result": "significantly blocks"},
      {"measurement": "effect on full growth media induced hCaEC migration", "setting": "[1]", "result": "inhibits"},
      {"measurement": "Emax", "setting": "[1]; Homo sapiens, Endothelial cell, acute drug exposure, no pretreatment, 5% FBS, 22 hour migration, mean±SEM, n=3, read-out: maximal efficacy of inhibition of hCaEC migration", "result": "96.8 ± 1.8", "unit": "%"},
      {"measurement": "IC50", "setting": "[1]; Homo sapiens, Endothelial cell, acute drug exposure, no pretreatment, migration induced by 5% FBS, 22 hour migration, mean±SEM, n=3, FIG. 1C, read-out: IC50 of inhibition of hCaEC migration", "result": "0.0282 ± 0.0034", "unit": "µM"}
    ]}
  ]
}
